{"source": "patent US11084799B2", "about": "“Polymorph of benzamide compound and preparation method and applications thereof” (SHENYANG SINOCHEM AGROCHEMICALS R&D CO., LTD., priority 2016, dated 2021)", "key": {"[1]": {"experiment": "Crystal form stability during long-term storage", "type": "physicochemical", "excerpt": "(§1) The advantages of the polymorph A in aspects such as chemical stability, filterability, solubility, hygroscopicity, melting point, solid density and flowability can have a significant impact on the developments of the production method and a formulation and on the quality and efficacy of a plant treating agent. […] The stability is favorable for determination of consistency of Compound 1. These features enable the polymorph A of Compound 1 to be well suitable for preparing a long effective and stable solid formulation so that the polymorph A has stable content of active component."}, "[2]": {"experiment": "Suspensibility in processing of the formulation", "type": "physicochemical", "conditions": "compared with polymorph B", "excerpt": "(§2) The polymorph A also presents better performance than the compound 1 prepared by the method (example 5) in the patent WO02010003350A1 in the aspect of the physical properties of the formulation."}, "[3]": {"experiment": "Dispersibility of 10% water suspending agent", "type": "physicochemical", "conditions": "after normal temperature for 2 years and heat storage (54 ± 2° C./14 d)", "excerpt": "(§3) The formulation includes the following composition: 10 parts of polymorph A of Compound 1 or polymorph B of Compound 1 obtained in above examples, 3 parts of sodium naphthalenesulfonate formaldehyde condensate, 3 parts of sodium salt of alkyl naphthalene sulfonic acid polycondensate, 0.1 part of white carbon black, 0.1 part of xanthan gum, 2 parts of pesticide emulsifier 0201B, 5 parts of glycol, 0.2 part of WJX-1 and water which is used to complement up to 100 parts by weight were successively added to a mixing tank for mixing. After conducting coarse grinding and homogenization through high shear, the mixture was grinded in a sand mill and detected the particle size of sanding materials through a sedimentograph. After the particle size meeting the standard requirements, the mixture was filtered to obtain 10% water suspending agent of polymorph A of Compound 1 or polymorph B of Compound 1."}, "[4]": {"experiment": "Pourability of 10% water suspending agent", "type": "physicochemical", "excerpt": "as §3"}, "[5]": {"experiment": "Heat storage (54 ± 2° C.) of 10% water suspending agent", "type": "physicochemical", "excerpt": "as §3"}, "[6]": {"experiment": "Insecticidal activity (pharmacodynamic stability), polymorph A versus polymorph B", "conditions": "compared with polymorph B", "excerpt": "as §2"}, "[7]": {"experiment": "Hygroscopicity on exposure to changing air humidity", "type": "physicochemical", "conditions": "exposed to changing air humidity", "excerpt": "as §1"}, "[8]": {"experiment": "Particle size distribution of 10% water suspending agent", "type": "physicochemical", "excerpt": "as §3"}, "[9]": {"experiment": "Formulation sample (10% water suspending agent) kept at normal temperatures", "type": "physicochemical", "excerpt": "as §3"}, "[10]": {"type": "physicochemical", "excerpt": "In the present invention, the slurry of the polymorph B of Compound 1 is heated in the presence of the solvent to convert into the polymorph A of Compound 1. The solvent is selected from the alcohol solvent and/or water. The alcohol solvent is selected from methanol, ethanol, n-propanol, isopropanol, n-butanol and n-pentanol. The adopted solvent can well convert the polymorph B into the polymorph A. In addition, the water as the solvent is well used to convert the polymorph B into the polymorph A. Furthermore, in the conversion process, at a temperature not more than 100° C., almost 100% conversion is completed at high yield within proper time. In the selection of the solvent, the water is selected to effectively reduce cost compared with the organic solvent. […] As an alternative, if the polymorph A with high concentration is in the water, then the polymorph A can be separated through evaporation of the water."}}, "note": "Entries after “also recorded” stand apart in the source; their conditions may differ."}
{"smiles": "CNC(=O)c1cc(Cl)cc(Cl)c1NC(=O)c1cc(Br)nn1-c1ncc(Cl)cc1Cl", "note": "[Polymorph A, 3-bromo-N-[2,4-dichloro-6-[(methylamino)carbonyl]phenyl]-1-(3,5-dichloro-2-pyridinyl)-1H-pyrazole-5-carboxamide]", "values": [{"measurement": "Conversion into other crystal forms", "setting": "[1]", "result": "does not convert into other crystal forms; also recorded: may not be converted into other crystal forms"}, {"measurement": "Stability", "setting": "[1]", "result": "excellent stability"}, {"measurement": "Suspensibility", "setting": "[2]", "result": "better suspensibility"}, {"measurement": "Flowability (Dispersibility line)", "setting": "[3]", "result": "good dispersibility and good; also recorded: good flowability"}, {"measurement": "Pourability (overall verdict)", "setting": "[4]; 10% water suspending agent", "result": "qualified."}, {"measurement": "Pourability: flow / flowability of the formulation sample", "setting": "[4]; 10% water suspending agent", "result": "good flowability; after"}, {"measurement": "Pourability: residues after washed", "setting": "[4]; 10% water suspending agent", "result": "≤ 0.5%; the pourability is"}, {"measurement": "Pourability", "setting": "[4]; in the processing of the formulation, compared with polymorph B", "result": "better pourability"}, {"measurement": "Heat storage (54 ± 2° C.): flowability of the formulation sample", "setting": "[5]; 10% water suspending agent, after kept for 14 days at 54 ± 2° C.", "result": "agent has good flowability"}, {"measurement": "Insecticidal activity", "setting": "[6]", "result": "better insecticidal activity"}, {"measurement": "Hygroscopicity", "setting": "[7]", "result": "does not present obvious hygroscopicity"}, {"measurement": "Particle size distribution", "setting": "[8]; 10% water suspending agent, after normal temperature for 2 years and heat storage (54 ± 2° C./14 d), printed as almost unchanged", "result": "unchanged."}, {"measurement": "Kept at normal temperatures: flowability of the formulation sample", "setting": "[9]; 10% water suspending agent, after kept for two years", "result": "suspending agent has good"}, {"measurement": "Kept at normal temperatures: viscosity of the formulation sample", "setting": "[9]; 10% water suspending agent, after kept for two years, printed as almost unchanged", "result": "unchanged viscosity."}, {"measurement": "Solubility in the water", "setting": "[10]", "result": "very low solubility"}]}
{"smiles": "CNC(=O)c1cc(Cl)cc(Cl)c1NC(=O)c1cc(Br)nn1-c1ncc(Cl)cc1Cl", "note": "[Polymorph B, 3-bromo-N-[2,4-dichloro-6-[(methylamino)carbonyl]phenyl]-1-(3,5-dichloro-2-pyridinyl)-1H-pyrazole-5-carboxamide]", "values": [{"measurement": "Pourability: flow / flowability of the formulation sample", "setting": "[4]; 10% water suspending agent", "result": "suspending agent does not"}, {"measurement": "Pourability: residues after washed", "setting": "[4]; 10% water suspending agent", "result": "unqualified."}, {"measurement": "Heat storage (54 ± 2° C.): state of the formulation sample", "setting": "[5]; 10% water suspending agent, observed after heat storage for 1 h", "result": "solidified and could not shake."}, {"measurement": "Hygroscopicity", "setting": "[7]", "result": "obvious hygroscopicity"}, {"measurement": "Particle size distribution", "setting": "[8]; 10% water suspending agent, after kept at normal temperature for 1 week", "result": "wide."}, {"measurement": "Kept at normal temperatures: state of the formulation sample of the suspending agent", "setting": "[9]; 10% water suspending agent, observed after kept for 2 h", "result": "suspending agent is solidified"}]}
{"smiles": "CNC(=O)c1cc(Cl)cc(Cl)c1NC(=O)c1cc(Br)nn1-c1ncc(Cl)cc1Cl", "note": "[Compound 1 Prepared by the Method in WO2010003350A1] [3-bromo-N-[2,4-dichloro-6-[(methylamino)carbonyl]phenyl]-1-(3,5-dichloro-2-pyridinyl)-1H-pyrazole-5-carboxamide, reference compound]", "values": [{"measurement": "Pourability: flow / flowability of the formulation sample", "setting": "[4]; 10% water suspending agent", "result": "suspending agent has poor"}, {"measurement": "Pourability: residues after washed", "setting": "[4]; 10% water suspending agent", "result": "unqualified."}, {"measurement": "Heat storage (54 ± 2° C.): state of the formulation sample", "setting": "[5]; suspending agent, observed after heat storage for 3 days", "result": "solidified and could not shake."}, {"measurement": "Particle size distribution", "setting": "[8]; suspending agent, no storage time stated", "result": "distribution is wide."}, {"measurement": "Kept at normal temperatures: flowability of the formulation sample", "setting": "[9]; suspending agent, after kept for 1 week", "result": "suspending agent has poor"}]}
